Reference: patent publication US5804589A, “Use of N-cyclohexyl benzamides for treating bowel disorders” (Laboratoires Jacques Logeais, priority 1995, dated 1998)
Values joined by “and” are separate entries in the source; they are usually repeats but may differ in a detail not shown here. Identical values can stand only once. “Also recorded” adds a separate entry of the source.

What was measured:
[1] = Visceral sensitivity: abdominal contractures produced by rectal distension after acetic acid irritation; assay type: in vivo; conditions: rat, 10 min distension, mean of five rats, placebo 23.8 ± 1.6, * p < 0.05 vs placebo
From the text: The first model consists in observing, in the rat, the abdominal contractures produced by a rectal distension applied to a mucous membrane which has been irritated beforehand. The number of contractures is proportional to the intensity of the pain experienced. A similar model has been described in Neurogastroenterol. and Mot. (1994), 6, 140, where it is shown that the products which decrease the perception of pain in man decrease the number of contractures observed in the rat.
Male Sprague-Dawley rats weighing 180 g are deprived of food for 12 hours. Under slight fluothane anaesthesia, an intrarectal probe is introduced (5 cm from the anus) and 1.5 ml of 1% dilute acetic acid are injected. The acid immediately flows out via the anus. This rapid contact of the acid makes it possible to irritate the mucous membrane (model for rectal colitis). 1 h 30 after irritation, a small latex balloon (diameter when empty 2 mm, length 1 cm), mounted on a polyurethane catheter (int. diameter 1 mm), is introduced into the rectum (5 cm from the anus) under slight fluothane anaesthesia. The catheter is attached to the base of the tail with adhesive tape and protected by a glass tube. The test product is administered by force feeding and the rat is then introduced into a crystallizing dish covered with a grid. The free ends of the tube and of the catheter are passed through the grid in order to carry out the dilations.
A distension is carried out 2 h 30 after irritating the rectum. The small balloon is dilated with 1.5 ml of distilled water (intracolic pressure equal to 60 mm Hg on average). Dilation is maintained for 10 minutes, during which the abdominal contractures are counted. The small balloon is then deflated by sucking off the distilled water.
They are expressed by the mean number of contractures observed with respect to five rats for the 10 minutes during which they are subjected to a distension.

[2] = Ulcerative colitis induced by intracolic trinitrobenzenesulphonic acid (TNB): weight, macroscopic and histological analysis of colon; assay type: in vivo, rat; conditions: for Mean weight of the animals: in g
From the text: A model for ulcerative colitis induced in the rat by an intracolic instillation of trinitrobenzenesulphonic acid has already been described, for example in Gut (1992), 33, 1498-1503.
The beneficial effect of a treatment on the development of this colitis can be evaluated, on the one hand, by the overall state of health of the animal, represented for example by the change in weight, and, on the other hand, by a histological study of the colon at the end of the experiment.
Male Sprague-Dawley rats (140-150 g), deprived of food since the previous day, are subjected, under general anaesthesia (isoflurane), to irritation of the mucous membrane of the distal colon (7 cm from the anus) with 1 ml of a 50 mg/ml aqueous trinitrobenzenesulphonic acid (TNB) solution. On the following day, the rats are randomized in two equal-sized groups (n=7) which then receive the treatment (placebo or product) by forcefeeding, mornings and evenings. The products are administered at 1 mg/kg p.o. twice daily.
The treatment is administered for the ten days which follow irritation of the colon. The animals are weighed every morning from D5 to D10. The animals are deprived of food on D9 and humanely killed on D10. The colons are removed and macroscopically and then histologically examined.
The macroscopic appearance of the colons was graded as follows:
Sections of the colon are fixed with formaldehyde and enclosed in paraffin blocks. 5 μm sections are prepared, stained with haemalum-eosin and evaluated by optical microscopy according to the following gradings:
The colon was divided into three mucous, submucous and muscular layers and each layer was graded according to the preceding criteria.
The sum of the gradings attributed to each substructure defines, per animal, an index which takes into account both the afflux of the inflammatory cells and the architectural distortion.

5-HT3 receptors [3] = target: T1, 5-HT3 receptors (Mus musculus, UniProt P23979); assay: Affinity for 5-HT3 receptors, membrane preparations of NG 108-15 cells, tritiated BRL 43694 as ligand; assay type: binding; conditions: NG 108-15 cell membranes
T1 sequence (P23979 24-489): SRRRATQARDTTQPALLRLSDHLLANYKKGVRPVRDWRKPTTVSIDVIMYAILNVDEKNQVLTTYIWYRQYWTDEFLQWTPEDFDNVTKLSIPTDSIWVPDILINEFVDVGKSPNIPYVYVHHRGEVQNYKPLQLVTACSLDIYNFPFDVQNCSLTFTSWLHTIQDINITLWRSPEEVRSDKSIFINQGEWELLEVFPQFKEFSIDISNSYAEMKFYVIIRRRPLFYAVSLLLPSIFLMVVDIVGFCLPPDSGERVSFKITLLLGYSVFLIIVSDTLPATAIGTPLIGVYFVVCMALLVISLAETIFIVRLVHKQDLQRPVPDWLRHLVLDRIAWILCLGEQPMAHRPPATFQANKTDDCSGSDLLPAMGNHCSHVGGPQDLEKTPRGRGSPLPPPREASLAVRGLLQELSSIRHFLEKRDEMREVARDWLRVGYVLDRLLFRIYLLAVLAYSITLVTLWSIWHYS
Method: The affinity of the compounds for 5-HT3 receptors was measured according to the method described in Bioch. Pharmacol. (1990), 40, (7), 1541-1550, by using membrane preparations of NG 108-15 cells and tritiated BRL 43694 as specific ligand.

5-HT3 receptors [4] = target: T2, 5-HT3 receptors (Rattus norvegicus, UniProt P35563); assay: Bezold-Jarisch reflex: inhibition of bradycardia induced by serotonin (5-HT3 antagonist activity in vivo); conditions: iv; read-out: IC50 for antagonism of serotonin-induced bradycardia
T2 construct: from tissue; host or cells: whole animal (endogenous receptor)
T2 sequence (P35563 24-483): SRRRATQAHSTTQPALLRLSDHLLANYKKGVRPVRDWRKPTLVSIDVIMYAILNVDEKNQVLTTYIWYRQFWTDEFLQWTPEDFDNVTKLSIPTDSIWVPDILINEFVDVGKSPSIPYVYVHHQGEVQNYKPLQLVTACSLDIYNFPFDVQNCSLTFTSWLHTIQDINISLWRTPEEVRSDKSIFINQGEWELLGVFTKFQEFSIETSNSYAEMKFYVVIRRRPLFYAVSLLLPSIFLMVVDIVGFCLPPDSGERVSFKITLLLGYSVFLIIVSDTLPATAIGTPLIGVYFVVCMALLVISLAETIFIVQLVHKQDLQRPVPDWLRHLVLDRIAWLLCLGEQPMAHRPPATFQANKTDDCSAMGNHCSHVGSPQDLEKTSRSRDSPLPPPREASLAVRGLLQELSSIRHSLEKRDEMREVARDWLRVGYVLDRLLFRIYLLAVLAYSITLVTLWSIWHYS
Method: The 5-HT3 antagonist activity of products was evaluated in vivo by measuring their property of inhibiting a bradycardia induced by serotonin, according to the method described in J. Pharm. & Exp. Therap. (1989), 248, 197-201.

SMILES: CC1CCN(C[C@H]2CCCC[C@@H]2NC(=O)c2cc(Cl)c(N)cc2OCC2CC2)CC1 [Compound 9]
- No. of contractures ± standard deviation ([1]; 0.3 mg/kg p.o.): 6.3 ± 3.5

SMILES: COc1cc(N)c(Cl)cc1C(=O)N[C@@H]1CCCC[C@@H]1CN1CCC(O)CC1 (relative stereo) [Compound 2]
- No. of contractures ± standard deviation ([1]; 0.3 mg/kg p.o.): 9.2 ± 5.3

SMILES: CC1CCN(C[C@H]2CCCC[C@H]2NC(=O)c2cc(Cl)c(N)cc2OC(C)C)CC1 (relative stereo) [Compound 7]
- No. of contractures ± standard deviation ([1]; 0.3 mg/kg p.o.): 7.6 ± 0.5

SMILES: COc1cc(N)c(Cl)cc1C(=O)N[C@@H]1CCCC[C@@H]1CN1CCC(C(C)(C)C)CC1 (relative stereo) [Compound 5]
- No. of contractures ± standard deviation ([1]; 0.3 mg/kg p.o.): 10.6 ± 3.8

SMILES: CC1CCN(C[C@H]2CCCC[C@H]2NC(=O)c2cc(Cl)c(N)cc2OCC2CC2)CC1 [Compound 6]
- No. of contractures ± standard deviation ([1]; 0.1 mg/kg p.o.): 3.3 ± 1.9
- No. of contractures ± standard deviation ([1]; 0.3 mg/kg p.o.): 7.3 ± 2.6
- No. of contractures ± standard deviation ([1]; 1 mg/kg p.o.): 9.4
- change in weight versus placebo ([2]; 1 mg/kg p.o. twice daily, TNB colitis): significantly improved change in weight
- Mean weight of the animals ([2]; 5 days after treatment with TNB, 1 mg/kg p.o. twice daily, placebo 130 ± 8): 153 ± 15
- Mean weight of the animals ([2]; 6 days after treatment with TNB, 1 mg/kg p.o. twice daily, placebo 139 ± 18, * p < 0.05): 177 ± 23
- Mean weight of the animals ([2]; 7 days after treatment with TNB, 1 mg/kg p.o. twice daily, placebo 142 ± 20, * p < 0.05): 186 ± 27
- Mean weight of the animals ([2]; 8 days after treatment with TNB, 1 mg/kg p.o. twice daily, placebo 147 ± 23, * p < 0.05): 194 ± 34
- Mean weight of the animals ([2]; 9 days after treatment with TNB, 1 mg/kg p.o. twice daily, placebo 158 ± 30, * p < 0.05): 206 ± 39
- Index (histological; sum of gradings of mucous, submucous and muscular layers per animal) ([2]; D10, 1 mg/kg p.o. twice daily, each index value shared by the number of animals in the column beside it): 11 and 3 and 1 and 0
- Number of animals at macroscopic colon Stage 0 ([2]; Stage 0: no trace of irritation, D10, 1 mg/kg p.o. twice daily, placebo 0): 0
- Number of animals at macroscopic colon Stage 1 ([2]; Stage 1: slightly vasodilated mucous membrane, D10, placebo 0): 1
- Number of animals at macroscopic colon Stage 2 ([2]; Stage 2: vasodilated mucous membrane and adhesions, D10, placebo 0): 4
- Number of animals at macroscopic colon Stage 3 ([2]; Stage 3: haemorrhagic and sclerotic mucous membrane and adhesions, D10, placebo 3): 2
- Number of animals at macroscopic colon Stage 4 ([2]; Stage 4: ulcerated and haemorrhagic mucous membrane and adhesions, D10, placebo 3): 0
- seriousness of the macroscopic colon lesions versus placebo ([2]; chi-squared test, Stages 1 and 2 vs Stages 3 and 4): seriousness of the lesions is significantly greater with the placebo than with Compound 6; also recorded: lesional appearance of the colon is less serious
- inflammatory state of the colon (histology) versus placebo ([2]; chi-squared test, indices 0 to 5 vs 6 to 12): inflammatory state is significantly more serious treated with the placebo than treated with Compound 6; also recorded: decrease in the afflux of the inflammatory cells
- size of the class combining histological indices 0 to 5 ([2]; number of animals, placebo 0): 5
- size of the class of macroscopic Stages 1 and 2 ([2]; number of animals, placebo 0): 5
- size of the class combining histological indices 6 to 12 ([2]; number of animals, placebo 6): 2
- size of the class of macroscopic Stages 3 and 4 ([2]; number of animals, placebo 6): 2

SMILES: Cc1nccn1CC1CCc2c(c3ccccc3n2C)C1=O (stereo not shown) [ondansetron]
- Ki (5-HT3 receptors [3]): 16 nM
- ED50 (5-HT3 receptors [4]): ~3 µg/kg

SMILES: COc1cc(N)c(Cl)cc1C(=O)N[C@@H]1CCCC[C@@H]1CN1CCC(C)(C)CC1 (relative stereo) [Compound 4]
- No. of contractures ± standard deviation ([1]; 0.3 mg/kg p.o.): 10.6 ± 4.2

SMILES: COc1cc(N)c(Cl)cc1C(=O)N[C@@H]1CCCC[C@@H]1CN1CCC(C)CC1 [Compound 1]
- No. of contractures ± standard deviation ([1]; 0.3 mg/kg p.o.): 3.4 ± 2.1

SMILES: COc1cc(N)c(Cl)cc1C(=O)N[C@@H]1CCCC[C@@H]1CN1CCC(CO)CC1 (relative stereo) [Compound 3]
- No. of contractures ± standard deviation ([1]; 0.3 mg/kg p.o.): 13.2 ± 2.4

SMILES: CC1CCN(C[C@H]2CCCC[C@H]2NC(=O)c2cc(Cl)c(N)cc2OC2CCCC2)CC1 [Compound 8]
- No. of contractures ± standard deviation ([1]; 0.3 mg/kg p.o.): 9.2 ± 1.3
